These are literature values, as cited in patent publication US20160318862A1, “SYNTHESIS OF DELTA 12-PGJ3 AND RELATED COMPOUNDS” (WILLIAM MARSH RICE UNIVERSITY, priority 2013, published 2016).

Data set [1] deals with T1, peroxisome proliferator-activated receptor γ (PPARγ) (Homo sapiens, UniProt P37231).
T1 sequence (P37231 1-505): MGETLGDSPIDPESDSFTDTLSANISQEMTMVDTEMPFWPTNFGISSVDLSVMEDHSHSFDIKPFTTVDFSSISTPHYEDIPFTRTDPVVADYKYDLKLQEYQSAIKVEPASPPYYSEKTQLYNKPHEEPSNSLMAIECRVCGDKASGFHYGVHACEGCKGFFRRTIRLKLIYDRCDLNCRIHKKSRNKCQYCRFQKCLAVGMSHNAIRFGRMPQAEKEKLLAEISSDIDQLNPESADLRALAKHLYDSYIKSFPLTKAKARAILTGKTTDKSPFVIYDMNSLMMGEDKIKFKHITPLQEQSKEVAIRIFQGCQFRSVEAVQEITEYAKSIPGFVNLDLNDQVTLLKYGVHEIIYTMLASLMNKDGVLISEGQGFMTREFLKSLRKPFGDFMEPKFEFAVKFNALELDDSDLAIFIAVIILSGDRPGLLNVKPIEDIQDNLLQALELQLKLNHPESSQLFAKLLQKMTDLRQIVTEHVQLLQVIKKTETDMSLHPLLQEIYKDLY

In data set [2] the test system is normal hematopoietic stem cells.
Data set [3] has as its system NF-κB-mediated transcription.
Data set [4] relates to tumor cells. The settings on record: incorporating into tumor cells and transferring into nuclei.
Data set [5] concerns topoisomerase.
Data set [6] concerns gadd45 promoter.
Data set [7] concerns p53. The settings on record: LSCs and leukemia cells.
In data set [8] the test system is AML LSCs. Particulars: murine models of AML; reported in U.S. Patent Publication 2013/0005737.
In data set [9] the test system is AML LSCs. Particulars: human AML leukemia samples; reported in U.S. Patent Publication 2013/0005737.
The subject of data set [10] is mice infected with Friend erythroleukemia virus or those expressing chronic myelogenous leukemia (CML) oncoprotein BCR-abl in the hematopoietic stem cell (HSC) ….
Data set [11] has as its system leukemia stem cells (LSCs).

The structures appear in SMILES notation. Like-named read-outs stand apart in the source and are kept apart here.

Regarding `CCCCC/C=C/C=C1/C(=O)C=C[C@@H]1C/C=C\CCCC(=O)O` [15-deoxy-Δ^12,14-PGJ2], the “ligand potency for PPARγ” value in data set [1] is reported as “most potent natural ligand reported to date”.

With `CC/C=C\C[C@H](O)/C=C/[C@H]1C(=O)C=C[C@@H]1C/C=C\CCCC(=O)O` [PGJ3], the “effect on normal hematopoietic stem cells or the differentiation of hematopoietic progenitors” value in data set [2] is reported as “no effect”.

In the case of `O=C(O)CCCC=CCC1C=CC(=O)C1=CCC(O)CC=CCC(F)(F)F` (stereo not shown) [compound 3, ω-Trifluoromethyl-Δ^12-PGJ3], in data set [3], the NF-κB-mediated transcription result is recorded as “Inhibition of the NF-κB-mediated transcription”.

Regarding `CCCCC[C@H](O)C/C=C1/C(=O)C=C[C@@H]1C/C=C\CCCC(=O)O` [Δ^12-PGJ2], the antitumor effects result in data set [4] is listed as “strong antitumor effects”. For the same molecule, the topoisomerase activity result in data set [5] is “inhibiting topoisomerase”. Also, the gadd45 promoter activity entry in [6] is on record as “activating the gadd45 promoter independently of p53”.

As to `CC/C=C\C[C@H](O)C/C=C1/C(=O)C=C[C@@H]1C/C=C\CCCC(=O)O` [Δ^12-PGJ3], in [7], the “expression of p53” value was “inducing the expression of p53”. Besides, the “targeting of AML LSCs by inducing apoptosis” value in data set [8] and in data set [9] was “effectively target AML LSCs by inducing apoptosis” in each case. Moreover, the “hematological parameters, splenic histology and survival” value in data set [10] (intraperitoneal administration) was “completely restored normal hematological parameters, splenic histology, and enhanced the survival”. Further, in [10] (two murine models of leukemia), the development of leukemia entry is “alleviates the development of leukemia”. Also, the “eradication of LSCs” value in data set [11] (in vivo, donor cells from treated mice unable to cause leukemia in secondary transplants) was “completely eradicated LSCs in vivo”. For the same molecule, in data set [11] (mice spleen and bone marrow), the “apoptosis of leukemia stem cells” value is “selectively targets and induces apoptosis of leukemia stem cells”.
